Measurements from ChEMBL document CHEMBL1130350, “Heteroaryl analogues of AMPA. Synthesis and quantitative structure-activity relationships” (J Med Chem, 1997).
Blank lines part the entries; values can stand above or below the compound they belong to.

How the values were obtained:
[1] = pKa value determined by potentiometric titrations. 4.4 is the equivalence volume; initial titrant volume is 9.8; type: physicochemical
[2] = target: Glutamate [NMDA] receptor; assay: In vitro binding affinity against N-methyl-D-aspartate glutamate receptor using [3H]-[…] as radioligand; type: protein-complex assay
Rattus norvegicus = species on record: Rattus norvegicus; assay: Electrophysiological study in rat cortical slice model; type: functional
[3] = target: Glutamate receptor ionotropic AMPA (Rattus norvegicus)
[4] = target: Glutamate receptor ionotropic kainate
Description: In vitro binding affinity against Ionotropic glutamate receptor kainate (kainic acid) using [3H]KAIN as radioligand

[5] = pKa value determined by potentiometric titrations. 5.1 is the equivalence volume; initial titrant volume is 9.4; type: physicochemical
[6] = pKa value determined by potentiometric titrations. 4.6 is the equivalence volume; initial titrant volume is 10.2; type: physicochemical
[7] = pKa value determined by potentiometric titrations. 4.5 is the equivalence volume; initial titrant volume is 9.5; type: physicochemical
[8] = pKa value determined by potentiometric titrations. 4.6 is the equivalence volume; initial titrant volume is 9.5; type: physicochemical
[9] = pKa value determined by potentiometric titrations. 5 is the equivalence volume; initial titrant volume is 9.6; type: physicochemical
[10] = pKa value determined by potentiometric titrations. 5 is the equivalence volume; initial titrant volume is 9.7; type: physicochemical
[11] = pKa value determined by potentiometric titrations. 4.9 is the equivalence volume; initial titrant volume is 9.7; type: physicochemical
[12] = pKa value determined by potentiometric titrations. 5.3 is the equivalence volume; initial titrant volume is 9.8; type: physicochemical

SMILES: NC(Cc1c(O)noc1-c1nccs1)C(=O)O (stereo unspecified)
pKa [1]: < 2
IC50 [2]: > 100 µM
EC50 (Rattus norvegicus): 2.3 µM
IC50 [3]: 0.094 µM
IC50 [4]: 4.9 µM

SMILES: Cn1cnc(-c2onc(O)c2CC(N)C(=O)O)n1 (stereo unspecified)
pKa [8]: < 2.3
IC50 [2]: > 100 µM
EC50 (Rattus norvegicus): 11 µM
IC50 [3]: 0.7 µM
IC50 [4]: > 100 µM

SMILES: Cn1nnc(-c2onc(O)c2CC(N)C(=O)O)n1 (stereo unspecified)
pKa [9]: 2.9
IC50 [2]: > 100 µM
EC50 (Rattus norvegicus): 0.92 µM
IC50 [4]: 41 µM

SMILES: Cc1onc(O)c1CC(N)C(=O)O [(R,S)-AMPA]
IC50 [2]: > 100 µM
EC50 (Rattus norvegicus): 5.4 µM

The next lines start with the values.

pKa [5]: 3.7
IC50 [2]: > 100 µM
EC50 (Rattus norvegicus): > 1000 µM
IC50 [3]: 54 µM
IC50 [4]: > 100 µM
SMILES: Cn1nnnc1-c1onc(O)c1CC(N)C(=O)O (stereo unspecified)

pKa [6]: < 2.4
IC50 [2]: > 100 µM
EC50 (Rattus norvegicus): 63 µM
IC50 [3]: 1.5 µM
IC50 [4]: 58 µM
SMILES: NC(Cc1c(O)noc1-c1nc[nH]n1)C(=O)O (stereo unspecified)

pKa [7]: < 2.3
IC50 [2]: > 100 µM
EC50 (Rattus norvegicus): 93 µM
IC50 [3]: 5.8 µM
IC50 [4]: 16 µM
SMILES: Cn1ncnc1-c1onc(O)c1CC(N)C(=O)O (stereo unspecified)

pKa [10]: < 3
IC50 [2]: > 100 µM
EC50 (Rattus norvegicus): > 1000 µM
IC50 [3]: 72 µM
IC50 [4]: > 100 µM
SMILES: NC(Cc1c(O)noc1-c1nn[nH]n1)C(=O)O (stereo unspecified)

pKa [11]: < 3.4
IC50 [2]: > 100 µM
EC50 (Rattus norvegicus): 550 µM
IC50 [3]: 48 µM
IC50 [4]: > 100 µM
SMILES: NC(Cc1c(O)noc1-c1ncc[nH]1)C(=O)O (stereo unspecified)

pKa [12]: < 3.4
IC50 [2]: > 100 µM
EC50 (Rattus norvegicus): > 1000 µM
IC50 [3]: > 100 µM
IC50 [4]: 74 µM
SMILES: Cn1ccnc1-c1onc(O)c1CC(N)C(=O)O (stereo unspecified)
